From article PMC3790782, “Optimization and Pharmacological Validation of a Leukocyte Migration Assay in Zebrafish Larvae for the Rapid In Vivo Bioactivity Analysis of Anti-Inflammatory Secondary Metabolites” (PLoS ONE, 2013)
pIC50: −log10 of the molar value. Marks after values point to notes of the source that are not given here.

Experiments:
[1] = tested on: zebrafish larvae; details: 4 dpf zebrafish larvae, 8 h post-incubation; not more than 2 of 10 larvae with signs of toxicity
Method: For the toxicological analysis, ten 4 dpf zebrafish larvae were used per well in 24-well culture plates. Incubation of each set of larvae at 28°C (±0.5) was done with SAIDs, NSAIDs and non-AIDs at concentrations ranging from 0.1 µM to 500 µM, with NPs at concentrations ranging from 1 µM to 500 µM, and with PEs at concentrations ranging from 1 ug/ml to 1 mg/ml. Controls containing only vehicle (1% DMSO) and untreated larvae were processed in parallel. Examination of each set of larvae was done under light microscopy (Carl Zeiss Stemi 2000C) each hour during a period of 8 h, and a final evaluation at 24 h post-incubation. At 8 h post-incubation, signs of toxicity, e.g. pericardial oedema, cardiovascular defects (arrhythmia or decreased circulation), balance defects (loss of normal posture), locomotor defects (decreased touch response), and ultimately death were scored for every drug, NP, and PE to further establish their maximum tolerated concentration (MTC). […] In this context, only non-toxic concentrations (below the MTC) were considered for further leukocyte migration analysis. All the toxicological assays were performed in duplicate using a different batch of zebrafish larvae for each set of experiments.
Toxicological assessment of all the samples analyzed in our study was done prior to the evaluation of their anti-inflammatory properties. The maximum tolerated concentrations (MTCs) were determined at 8 h post-treatment according to toxicological parameters including pericardial oedema, cardiovascular defects (arrhythmia or decreased circulation), balance defects (loss of normal posture), locomotor defects (decreased touch response), and death. […] Vehicle-treated (1% DMSO) and untreated larvae were processed in parallel to minimize experimental variability in this toxicological evaluation.

[2] = tested on: leukocyte migration in 4 dpf zebrafish larvae; test: LPS-enhanced leukocyte migration assay (tail transection, MPO staining, RLM); format: in vivo, zebrafish (Danio rerio); parameters: Anti-inflammatory activity at MTC: concentration or dose not given beside the values
Method: The lipopolysaccharide- (LPS−)enhanced leukocyte migration assay was carried out by triplicate for each sample in 4 dpf zebrafish larvae. The total incubation period of the assay was eight hours. Initially, a pre-incubation step (i.e. prior to tail transection) of one hour at 28°C (±0.5°C) was carried out in 24-well culture plates. Ten larvae per well were incubated in 1 ml of testing mix, consisting of a specific concentration of each sample and the amount of 0.3 X Danieau’s medium necessary to complete 1 ml. Immediately after pre-incubation, complete tail transection in each larva was performed. Zebrafish larvae were first anesthetized by immersion in 0.3 X Danieau’s medium containing 70 µg/ml tricaine (ethyl 3-aminobenzoate, Sigma-Aldrich) and then tail transection near the tip was performed with a sterile scalpel under light microscopy (Carl Zeiss Stemi 2000C). Larvae were then placed in fresh 0.3 X Danieau’s medium without anesthetic for a few minutes until the final incubation period. For the last step, a new testing mix was prepared including 10 µg/ml lipopolysaccharides from Salmonella typhosa ATCC 10749 (LPS, Sigma-Aldrich Chemical) to enhance leukocyte migration to the injured zone. The final incubation step (i.e. subsequent to tail transection) of the injured larvae in contact with the pro-inflammatory agent and with the specific concentration of each SAID, NSAID, non-AID, NP, and PE at 28°C (±0.5°C) was done for 7 h. Within this period, sporadic evaluations of the larvae were done to examine their viability during the time of the assay. Larvae that completed the incubation time were fixed overnight in 4% formaldehyde (Sigma-Aldrich) at 4°C. Controls containing only the vehicle (1% DMSO) were processed in parallel.
Fixed larvae were gently washed twice with 1 X PBST (PBS-1X phosphate buffered saline, Gibco +0.1% Tween 20) for 5–10 min and then incubated at room temperature in 1 ml of freshly prepared Leucognost® Pox (Merck) staining solution, made according the directions of the provider. Observation of stained black-brown cells (leukocytes) in the larvae was possible within 15 min of incubation. Evaluation of the migrating leukocytes, particularly surrounding the injured region, in each larva was done under light microscopy (Carl Zeiss Stemi 2000C) and scoring was done using a migration scale established to semi-quantify the amount of migrating leukocytes on one side of each larva.
The average of the value achieved for each of the ten larvae tested in triplicate for one sample is expressed as relative leukocyte migration (RLM) according to the formula: RLM = leukocyte migration of the larva/average leukocyte migration of the negative control.
To determine the extent of leukocyte migration generated after exposing 4 dpf zebrafish larvae to mechanical and biological stimuli – namely tail transection and LPS exposure – we used a commercially available whole-mount cytochemical staining method (Leucognost® Pox, Merck) to detect MPO activity in situ. To minimize the number of handling steps post-staining, this method was chosen over the alternative myeloperoxidase stain Sudan Black B [26], [27], which also stains phospholipids, neural fats and sterols. In our experiments, we visualized migrating leukocytes in 4 dpf larvae at 8 h post-injury. Microscopic evaluations of MPO-stained larvae allowed us to score the degree of leukocyte migration at the trauma site according to a comparative scale that we established particularly for this purpose (Figure 2). Myeloperoxidase-positive cells, appearing as black-brown dots, were counted in a segment at the edge of the tail on one side of every larva (Figure 2). The number of leukocytes was then graded according to the comparative scale and subsequently converted into a relative value expressed as the relative leukocyte migration (RLM) activity for the total number or larvae for one sample.

[3] = tested on: NO, RAW 264.7; parameters: method as in PMID 15621702, PMID 19678956, PMID 19885845; details: cited from earlier work

Question: What does the source list for `O=C(O)/C=C/c1ccc(O)c(O)c1` [Caffeic acid, caffeic acid]?
Answer: Maximum tolerated concentration (MTC) [1]: 500 µM; Leukocyte migration (RLM) ([2]; 500 µM, tail cut + 10 µg/ml LPS, relative to 1% DMSO control): 0.14 ^**; response vs control in vivo at 1 µM ([2]; Danio rerio, Leukocyte, 8 h, 1 µM, tail cut + 10 µg/ml LPS, relative to 1% DMSO control): 80%; response vs control in vivo at 10 µM ([2]; Danio rerio, Leukocyte, 8 h, 10 µM, tail cut + 10 µg/ml LPS, relative to 1% DMSO control): 71%; response vs control in vivo at 30 µM ([2]; Danio rerio, Leukocyte, 8 h, 30 µM, tail cut + 10 µg/ml LPS, relative to 1% DMSO control): 59%; response vs control in vivo at 100 µM ([2]; Danio rerio, Leukocyte, 8 h, 100 µM, tail cut + 10 µg/ml LPS, relative to 1% DMSO control): 59%; response vs control in vivo at 300 µM ([2]; Danio rerio, Leukocyte, 8 h, 300 µM, tail cut + 10 µg/ml LPS, relative to 1% DMSO control): 34%; response vs control in vivo at 500 µM ([2]; Danio rerio, Leukocyte, 8 h, 500 µM, tail cut + 10 µg/ml LPS, relative to 1% DMSO control): 14%; Anti-inflammatory activity at MTC ([2]; at MTC, (1−RLM)x100): 86%; RLM (zebrafish-based assay) ([2]; at the MTC given in Table 2): 0.14; pIC50 [3]: 5.32
